# Experimental data as given in article PMC11684029, “Discovery of VU6024578/BI02982816: An mGlu1 Positive Allosteric Modulator with Efficacy in Preclinical Antipsychotic and Cognition Models” (Journal of Medicinal Chemistry, 2024).
# Entries after “also recorded” stand apart in the source; their conditions may differ.
# What was measured:
# [1] = hydrolytic stability; assay type: physicochemical
# [2] = predicted hepatic clearance; assay type: in vitro ADME, cyno
# Description: Across species, 19d had acceptable fraction unbound in both plasma (fu (plasma): 0.03 (human), 0.041 (rat), 0.025 (cyno), 0.039 (dog) and 0.056 (mouse)) and brain (fu (brain): 0.034 (rat) and 0.081 (mouse)).
# [3] = test system: Sprague–Dawley rats; assay: catalepsy (latency to withdraw); assay type: in vivo; conditions: rat, doses up to 10 mg/kg p.o., 100 min postdose
# Method: In order to enable our target validation work, we first profiled PAM 19d in a rat locomotor battery to ensure that pharmacodynamic efficacy was not mistaken for gross effects on locomotion.[20] […] PK was performed in parallel to establish a PK/PD relationship.[24]
# Control rats were injected with 1.5 mg/kg of haloperidol i.p. (dissolved in 8% lactic acid and taken to volume of 50 mL with sterile water) and were returned to their home cage for 90 min. Cataleptic behavior is determined by placing the forelimbs on a bar raised 6 cm above the table and recording the amount of time it takes for the rat to withdraw the forelimbs with a cutoff of 60 s. Data are expressed as mean latency to withdraw + SEM or percent inhibition of catalepsy + SEM.
# [4] = satellite PK for NOR; assay type: in vivo; conditions: brain, rat, 210 min postdose
# Description: Based on our previous work with the mGlu1 PAM 4,[6]−[9],[14]−[19] we first evaluated the ability of 19d to reverse MK-801 disruptions of novel object recognition (NOR) in rats (Figure 6).
# [5] = test system: Sprague–Dawley rats; assay: amphetamine-induced hyperlocomotion (rat); assay type: in vivo
# Method: Here, administration of 0.75 mg/kg IP of amphetamine induced a robust hyperlocomotive state in rats (>1200 beam breaks), which was dose-dependently reversed by oral administration of 19d. […] Considering the longer time point for exposure and the results, mGlu1 has sufficient target coverage and PK/PD is established for this paradigm.[24]
# Figure 7 Rat amphetamine-induced hyperlocomotion and reversal by VU6024578 (19d). Amphetamine (0.75 mg/kg IP) induced robust hyperlocomotion, which was dose-dependently reversed by oral administration (10% tween 80) of 19d. TEXT PRINTED IN THE PICTURE: VU6024578: Mean % reversal: -0.2 ± 13.0 (1 mg/kg p.o. + Amphetamine 0.75 mg/kg s.c.); Mean % reversal: 31.6 ± 10.2 (3 mg/kg p.o. + Amphetamine 0.75 mg/kg s.c.); Mean % reversal: 31.4 ± 4.3 (5.6 mg/kg p.o. + Amphetamine 0.75 mg/kg s.c.); Mean % reversal: 41.8 ± 7.1 (10 mg/kg p.o. + Amphetamine 0.75 mg/kg s.c.)
# Adult male Sprague–Dawley rats placed into the activity chambers (Med Associates). Thirty minutes after placement in the chambers, the rats were administered VU6024578 (1–10 mg/kg p.o.) or vehicle. Sixty minutes later the rats were injected with amphetamine (0.75 mg/kg s.c. One ml/kg) or vehicle (saline) and placed back in the activity chambers for 90 min. The data for the studies were analyzed by a between-group 2 way analysis of variance for compound dose and time. Each dose group was compared with the vehicle control group. The calculations were performed and graphed using GraphPad Prism (version 4.03, GraphPad, La Jolla, CA). The AUC was analyzed by a 1-way ANOVA with a Dunnett’s post hoc test.
# [6] = satellite PK for mouse AHL; assay type: in vivo
# Description: In parallel with the rat AHL study, we carried out a mouse AHL study to determine if the PK/PD relationship would remain intact across rodent species.
# [7] = molecular target: T1, AT1 (Homo sapiens, UniProt P30556); assay: Eurofins radioligand binding panel; conditions: antagonist radioligand
# T1 construct: Eurofins
# Description: (§1) Table S1. Eurofins Lead Profiling Screen Data
# (§2) This is a radioligand binding panel of 80 targets including GPCRs, ion channels, transporters and nuclear hormones. Biochemical assay results are presented as the percent inhibition of specific […]
# (§3) Results showing an inhibition or stimulation higher than 50% are considered to represent significant effect and are highlighted […]
# (§4) Target / Protein Species % Inhibition at 10 […]
# [8] = molecular target: T2, AT2 (Homo sapiens, UniProt P50052); assay: Eurofins radioligand binding panel; conditions: agonist radioligand
# T2 construct: Eurofins (panel run as a service)
# Description: as §1, §2, §3, §4
# [9] = molecular target: T3, Adenosine A2A (Homo sapiens, UniProt P29274); assay: Eurofins radioligand binding panel; conditions: agonist radioligand
# T3 construct: Eurofins
# Description: as §1, §2, §3, §4
# [10] = molecular target: T4, Adenosine A3 (Homo sapiens, UniProt P0DMS8); assay: Eurofins radioligand binding panel; conditions: agonist radioligand
# T4 construct: Eurofins
# Description: as §1, §2, §3, §4
# [11] = molecular target: T5, Adrenergic beta 1 (Homo sapiens, UniProt P08588); assay: Eurofins radioligand binding panel; conditions: agonist radioligand
# T5 construct: Eurofins
# Description: as §1, §2, §3, §4
# [12] = molecular target: T6, Adrenergic beta 2 (Homo sapiens, UniProt P07550); assay: Eurofins radioligand binding panel; conditions: antagonist radioligand
# T6 construct: Eurofins
# Description: as §1, §2, §3, §4
# [13] = molecular target: T7, B2 (Homo sapiens, UniProt P30411); assay: Eurofins radioligand binding panel; conditions: agonist radioligand
# T7 construct: Eurofins (panel run as a service)
# Description: as §1, §2, §3, §4
# [14] = test system: BZD (central); assay: Eurofins radioligand binding panel; conditions: agonist radioligand
# Description: as §1, §2, §3, §4
# [15] = molecular target: T8, BZD (peripheral) (Rattus norvegicus, UniProt P16257); assay: Eurofins radioligand binding panel; conditions: antagonist radioligand
# T8 construct: Eurofins (panel run as a service)
# Description: as §1, §2, §3, §4
# [16] = molecular target: T9, CB1 (Homo sapiens, UniProt P21554); assay: Eurofins radioligand binding panel; conditions: agonist radioligand
# T9 construct: Eurofins (panel run as a service)
# Description: as §1, §2, §3, §4
# [17] = molecular target: T10, CCK1 (CCKA) (Homo sapiens, UniProt P32238); assay: Eurofins radioligand binding panel; conditions: agonist radioligand
# T10 construct: Eurofins (panel run as a service)
# Description: as §1, §2, §3, §4
# [18] = molecular target: T11, CGRP (Homo sapiens, UniProt O60894+Q16602); assay: Eurofins radioligand binding panel; conditions: agonist radioligand
# T11 construct: Eurofins (panel run as a service)
# Description: as §1, §2, §3, §4
# [19] = test system: Adrenergic alpha 1 (non-selective); assay: Eurofins radioligand binding panel; parameters: species or system rat; conditions: antagonist radioligand
# Description: as §1, §2, §3, §4
# [20] = test system: Adrenergic alpha 2 (non-selective); assay: Eurofins radioligand binding panel; parameters: species or system rat; conditions: antagonist radioligand
# Description: as §1, §2, §3, §4
# [21] = test system: BB (non-selective); assay: Eurofins radioligand binding panel; parameters: species or system rat; conditions: agonist radioligand
# Description: as §1, §2, §3, §4
# T9 sequence (P21554 whole entry): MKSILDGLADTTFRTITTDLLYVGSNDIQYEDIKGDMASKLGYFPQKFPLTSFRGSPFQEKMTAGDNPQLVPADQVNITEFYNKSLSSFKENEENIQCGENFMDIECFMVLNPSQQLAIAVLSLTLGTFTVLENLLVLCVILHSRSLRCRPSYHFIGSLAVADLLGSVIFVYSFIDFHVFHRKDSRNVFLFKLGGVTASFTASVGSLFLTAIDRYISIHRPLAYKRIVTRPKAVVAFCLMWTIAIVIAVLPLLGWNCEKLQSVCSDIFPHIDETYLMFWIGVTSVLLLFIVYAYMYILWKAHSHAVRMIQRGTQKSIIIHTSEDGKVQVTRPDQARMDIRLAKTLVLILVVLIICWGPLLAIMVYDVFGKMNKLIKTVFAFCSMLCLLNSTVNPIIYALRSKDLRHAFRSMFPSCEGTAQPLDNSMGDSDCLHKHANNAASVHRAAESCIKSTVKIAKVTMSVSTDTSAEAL
# T7 sequence (P30411 whole entry): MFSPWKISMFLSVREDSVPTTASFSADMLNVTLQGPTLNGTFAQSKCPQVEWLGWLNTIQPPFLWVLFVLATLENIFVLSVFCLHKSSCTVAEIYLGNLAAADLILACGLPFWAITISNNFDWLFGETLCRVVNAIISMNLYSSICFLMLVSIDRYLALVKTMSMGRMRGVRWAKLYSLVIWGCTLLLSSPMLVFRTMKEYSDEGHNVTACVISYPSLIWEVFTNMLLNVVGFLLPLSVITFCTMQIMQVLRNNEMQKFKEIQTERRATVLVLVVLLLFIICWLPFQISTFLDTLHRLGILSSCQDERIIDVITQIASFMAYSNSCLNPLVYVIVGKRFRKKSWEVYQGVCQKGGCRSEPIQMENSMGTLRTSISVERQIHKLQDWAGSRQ
# T5 sequence (P08588 whole entry): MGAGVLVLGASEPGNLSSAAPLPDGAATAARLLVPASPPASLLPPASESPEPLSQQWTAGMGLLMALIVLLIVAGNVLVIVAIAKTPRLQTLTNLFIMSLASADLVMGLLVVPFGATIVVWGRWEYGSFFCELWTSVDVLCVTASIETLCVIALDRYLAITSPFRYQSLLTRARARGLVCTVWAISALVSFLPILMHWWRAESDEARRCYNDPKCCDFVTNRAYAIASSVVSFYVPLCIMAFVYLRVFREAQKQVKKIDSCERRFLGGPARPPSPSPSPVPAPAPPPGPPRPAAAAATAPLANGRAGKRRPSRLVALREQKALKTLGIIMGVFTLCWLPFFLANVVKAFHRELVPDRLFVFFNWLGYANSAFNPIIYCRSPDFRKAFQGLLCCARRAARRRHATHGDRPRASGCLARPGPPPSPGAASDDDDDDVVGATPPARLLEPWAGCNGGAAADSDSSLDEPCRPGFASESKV
# T2 sequence (P50052 whole entry): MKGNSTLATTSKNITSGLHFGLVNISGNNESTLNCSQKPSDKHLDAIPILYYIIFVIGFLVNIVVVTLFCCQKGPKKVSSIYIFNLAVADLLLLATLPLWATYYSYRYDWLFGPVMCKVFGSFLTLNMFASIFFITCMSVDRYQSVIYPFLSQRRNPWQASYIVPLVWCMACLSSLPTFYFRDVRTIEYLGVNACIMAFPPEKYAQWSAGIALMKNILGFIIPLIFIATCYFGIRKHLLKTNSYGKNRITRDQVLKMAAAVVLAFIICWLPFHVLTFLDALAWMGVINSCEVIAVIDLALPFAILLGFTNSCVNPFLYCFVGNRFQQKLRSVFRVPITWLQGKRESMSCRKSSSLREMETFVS
# T10 sequence (P32238 whole entry): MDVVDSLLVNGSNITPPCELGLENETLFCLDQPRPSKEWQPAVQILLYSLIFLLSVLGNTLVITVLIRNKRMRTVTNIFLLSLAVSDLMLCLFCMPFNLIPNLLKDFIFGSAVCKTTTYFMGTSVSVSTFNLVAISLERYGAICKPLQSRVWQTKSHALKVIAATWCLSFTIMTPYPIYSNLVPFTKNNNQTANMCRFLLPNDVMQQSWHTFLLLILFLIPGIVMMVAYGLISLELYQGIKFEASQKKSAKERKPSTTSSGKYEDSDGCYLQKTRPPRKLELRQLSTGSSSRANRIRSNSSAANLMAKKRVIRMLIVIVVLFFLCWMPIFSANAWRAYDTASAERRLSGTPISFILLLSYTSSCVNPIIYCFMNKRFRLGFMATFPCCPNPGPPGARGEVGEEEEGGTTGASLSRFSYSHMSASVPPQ
# T1 sequence (P30556 whole entry): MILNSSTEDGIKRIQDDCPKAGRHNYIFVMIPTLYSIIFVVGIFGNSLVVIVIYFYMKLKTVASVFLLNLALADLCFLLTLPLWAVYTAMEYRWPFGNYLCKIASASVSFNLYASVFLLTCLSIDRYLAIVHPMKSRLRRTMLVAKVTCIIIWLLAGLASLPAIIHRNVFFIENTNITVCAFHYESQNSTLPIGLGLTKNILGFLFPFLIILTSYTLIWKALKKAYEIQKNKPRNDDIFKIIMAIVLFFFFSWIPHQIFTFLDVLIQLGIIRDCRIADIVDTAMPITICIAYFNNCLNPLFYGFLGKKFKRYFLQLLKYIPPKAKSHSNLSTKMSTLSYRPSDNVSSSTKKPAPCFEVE
# T6 sequence (P07550 whole entry): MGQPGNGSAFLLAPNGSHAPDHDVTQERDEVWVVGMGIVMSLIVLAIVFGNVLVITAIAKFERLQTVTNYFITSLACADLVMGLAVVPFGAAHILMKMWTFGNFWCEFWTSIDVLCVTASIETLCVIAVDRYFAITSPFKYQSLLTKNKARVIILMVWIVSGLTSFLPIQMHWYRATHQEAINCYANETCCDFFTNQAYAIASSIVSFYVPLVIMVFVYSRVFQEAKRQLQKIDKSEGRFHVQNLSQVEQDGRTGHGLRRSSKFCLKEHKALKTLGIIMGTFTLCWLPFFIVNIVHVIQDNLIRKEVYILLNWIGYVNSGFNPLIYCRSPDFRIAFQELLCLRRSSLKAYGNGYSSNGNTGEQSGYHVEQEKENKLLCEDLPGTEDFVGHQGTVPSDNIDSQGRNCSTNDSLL
# T3 sequence (P29274 whole entry): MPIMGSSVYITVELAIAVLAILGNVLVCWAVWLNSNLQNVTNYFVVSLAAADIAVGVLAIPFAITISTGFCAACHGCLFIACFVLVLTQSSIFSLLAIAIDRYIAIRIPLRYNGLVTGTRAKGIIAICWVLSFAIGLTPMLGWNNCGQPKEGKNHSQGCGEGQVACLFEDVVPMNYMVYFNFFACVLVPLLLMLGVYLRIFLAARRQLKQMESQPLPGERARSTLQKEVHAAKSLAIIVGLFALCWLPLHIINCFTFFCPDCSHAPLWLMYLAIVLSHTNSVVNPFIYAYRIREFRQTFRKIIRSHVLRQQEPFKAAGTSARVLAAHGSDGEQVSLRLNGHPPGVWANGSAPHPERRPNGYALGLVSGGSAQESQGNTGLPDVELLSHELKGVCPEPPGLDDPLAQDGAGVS
# T11 sequence (Q16602 23-461): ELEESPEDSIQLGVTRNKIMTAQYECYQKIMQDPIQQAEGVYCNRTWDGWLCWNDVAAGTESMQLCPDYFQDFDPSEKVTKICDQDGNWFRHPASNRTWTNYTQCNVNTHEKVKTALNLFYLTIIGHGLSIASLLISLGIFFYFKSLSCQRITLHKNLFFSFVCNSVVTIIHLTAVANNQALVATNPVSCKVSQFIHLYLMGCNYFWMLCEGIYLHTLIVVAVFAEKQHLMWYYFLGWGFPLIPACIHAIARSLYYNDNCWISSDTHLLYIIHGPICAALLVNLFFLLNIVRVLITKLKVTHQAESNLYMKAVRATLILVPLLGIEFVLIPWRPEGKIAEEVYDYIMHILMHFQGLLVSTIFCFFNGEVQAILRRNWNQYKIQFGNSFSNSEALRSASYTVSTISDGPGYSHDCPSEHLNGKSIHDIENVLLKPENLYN
# T11 sequence (O60894 27-148 partner): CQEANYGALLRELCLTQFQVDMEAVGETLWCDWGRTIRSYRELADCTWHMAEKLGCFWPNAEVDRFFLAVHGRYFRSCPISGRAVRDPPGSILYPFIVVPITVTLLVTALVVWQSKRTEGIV
# T4 sequence (P0DMS8 whole entry): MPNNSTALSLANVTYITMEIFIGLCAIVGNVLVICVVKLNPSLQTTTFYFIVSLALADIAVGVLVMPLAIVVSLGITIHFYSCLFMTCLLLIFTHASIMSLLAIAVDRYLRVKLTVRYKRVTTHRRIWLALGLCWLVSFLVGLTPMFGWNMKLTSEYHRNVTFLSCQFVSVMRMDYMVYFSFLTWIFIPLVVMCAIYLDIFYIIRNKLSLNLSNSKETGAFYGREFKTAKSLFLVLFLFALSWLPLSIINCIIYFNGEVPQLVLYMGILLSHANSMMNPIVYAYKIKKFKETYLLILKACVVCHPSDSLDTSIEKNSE
smiles,measurement,setting,value
"Cn1nc(-c2ccnn2C)cc1CNC(=O)c1cc(-c2ccco2)ccc1Cl [Compound 19d, 2-Chloro-N-((1,2′-dimethyl-1H,2’H-[3,3′-bipyrazol]-5-yl)methyl)-5-(furan-2-yl)benzamide]",hydrolytic stability,"[1]; acidic, pH 2.2",hydrolytically stable
same,hydrolytic stability,"[1]; neutral, pH 7.4",hydrolytically stable
same,"CLhep, cyno",[2],31 mL/min/kg
same,catalepsy,[3],lack of effect; also recorded: without effect
same,concentration at 210 min,"[4]; 10 mg/kg PO, read-out: free brain concentration",73 nM
same,Kp at 3.5 h,[4]; PO,0.34
same,Mean % reversal of AHL,[5]; 1 mg/kg p.o.,-0.2 ± 13.0%
same,Mean % reversal of AHL,[5]; 3 mg/kg p.o.,31.6 ± 10.2%
same,Mean % reversal of AHL,[5]; 5.6 mg/kg p.o.,31.4 ± 4.3%
same,Mean % reversal of AHL,[5]; 10 mg/kg p.o.,41.8 ± 7.1%
same,"minimum effective dose (MED), AHL",[5]; p.o.,3 mg/kg
same,free brain concentration,[6]; 10 mg/kg,36 nM
same,free brain concentration over the EC50,[6]; 10 mg/kg,1.3 fold
same,free brain concentration,[6]; 30 mg/kg,67 nM
same,free brain concentration over the EC50,[6]; 30 mg/kg,2.5 fold
same,inhibition at 10 µM,[7],-1%
same,inhibition at 10 µM,[8],2%
same,inhibition at 10 µM,[9],-1%
same,inhibition at 10 µM,[10],23%
same,inhibition at 10 µM,[11],1%
same,inhibition at 10 µM,[12],-1%
same,inhibition at 10 µM,[13],7%
same,% Inhibition at 10 µM,[14],5%
same,inhibition at 10 µM,[15],96%
same,inhibition at 10 µM,[16],0%
same,inhibition at 10 µM,[17],7%
same,inhibition at 10 µM,[18],1%
same,% Inhibition at 10 µM,[19],19%
same,% Inhibition at 10 µM,[20],1%
same,% Inhibition at 10 µM,[21],-20%
